Structures are written as SMILES.

We go through 4 molecules from US10718006B2, “Methods for detecting beta-lactamase-producing bacteria” (priority 2015, dated 2020).

In data set [1] the test system is E. coli strains ESBL+ (MIAE6690) and ESBL− (K12). As to the kind of experiment: Optical density of E. coli strains cultured with cefotaxime. It is filed as cell-based.
For the next data set, the system named is ESBL+ E. coli strain. Nature of the data set: ESBL+ E. coli cultured with cefotaxime with or without clavulanate potassium. It is filed as cell-based. As for the experimental part: FIG. 4: Cyclic voltammograms (v=50 mV·s^−1) recorded with a screen-printed sensor for the E. coli strain ESBL^+ cultured in a culture medium containing only 4 μg·mL^−1 of cefotaxime (A) or supplemented with 10 μg·mL^−1 of clavulanate potassium, then centrifuged (1 mL; 7000 g; 10 min) before a step of incubation of the pellet with 50 μL in a 500-μM solution of nitrocefin in PBS for 10 min.
Since the hyperproduced cephalosporinases and the carbapenemases can also hydrolyse cefotaxime, the bacteria producing these enzymes can also give a positive response in the presence of cefotaxime. In order to distinguish the bacteria producing extended-spectrum beta-lactamases and the bacteria producing hyperproduced cephalosporinases and carbapenemases, the bacteria were cultured simultaneously in two culture media, one containing cefotaxime as antibiotic, the other additionally containing clavulanate potassium as inhibitor of ESBLs. After recovering the bacteria, the bacterial pellets were incubated with nitrocefin as substrate.

The nature of data set [2]: Cyclic voltammetry of nitrocefin and its form hydrolyzed by ESBL. In kind it is physicochemical. The note with it: screen-printed carbon electrodes; for peak of irreversible anodic oxidation (a1): PBS pH 7.0. The text has this: Each sensor consists of the working electrode and a counter-electrode. The working area of the sensor (7.07 mm^2) is delimited with an adhesive ring, which also allows the electrochemical cell to be defined. For carrying out amperometric measurement, the sensor is inserted in a connector (Dropsens) connected to the potentiostat, and then a 20-μL drop of the solution to be analyzed is deposited on the surface of the sensor. After immersing a silver wire coated with a silver chloride precipitate (Ag/AgCl), which constitutes the reference electrode, the measurements are carried out by cyclic voltammetry (v=50 mV·s^−1) at ambient temperature.
5 μL of ESBL solution is put in a polypropylene tube containing 45 μL of 0.5 mM nitrocefin solution in phosphate buffer (PBS; 100 mM; pH=7.0). After a step of incubation for 10 minutes at ambient temperature in the dark, 20 μL of the mixture is taken and transferred onto the surface of the screen-printed carbon sensor. A reference electrode (Ag/AgCl) is then immersed in the 20 μL of solution previously deposited, and the cyclic voltammetry measurements are carried out by proceeding as follows: potential scanning between −0.4 V and 1.2 V at a rate of 50 mV·s^−1.
The oxidation peak appearing at about +0.3 V results from hydrolysis of the beta-lactam ring of nitrocefin and may be selected as the analytical response for identifying beta-lactamases in a sample.
Nitrocefin was hydrolyzed by an extended-spectrum beta-lactamase in an abundant quantity. The voltammetric behaviour of nitrocefin (S) and of its hydrolyzed form (P) was investigated by cyclic voltammetry using screen-printed electrodes based on carbon. Nitrocefin and hydrolyzed nitrocefin both have a peak of irreversible anodic oxidation (a1) at about +1.0 V vs. Ag/AgCl. This peak may be attributed to oxidation of the thiol group in the dihydrothiazine group or to other functions specific to the cephalosporin derivatives. […]

Data set [3] concerns E. coli strains ESBL+ (MIAE6690) and ESBL− (K12). As to the kind of experiment: Voltammetric detection of ESBL-producing E. coli with nitrocefin. The note with it: pellet incubated 10 min with 500 μM nitrocefin. It is filed as cell-based. How it is done:
Then 1 mL of each bacterial suspension is transferred to a polypropylene tube and centrifuged at 7000 g for 10 min. After removing the supernatant, a volume of 50 μL of nitrocefin solution (0.5 mM in PBS) is put in the tube and incubated with the bacterial pellet for 10 min at ambient temperature in the dark. The liquid is then aspirated and transferred onto the screen-printed sensor to carry out the voltammetric measurement as stated in section 1.3.
To evaluate the capacity of the voltammetric method for detecting the ESBL-producing bacteria, two strains of E. coli with a well-characterized genotype were selected, one being a producer of an ESBL (ESBL^+) and the other not producing ESBL (ESBL^−). First the two strains are cultured in LB medium containing 4 μg·mL^−1 of cefotaxime. After the centrifugation step, the respective bacterial pellets of these two strains are incubated with nitrocefin as substrate. […] The culture medium supplemented with cefotaxime and the medium without antibiotic were also subjected to voltammetric measurement. No specific signal is observed in the potential range [0.1-0.6 V vs. Ag/AgCl] for these two media, which confirms that neither the LB culture medium, nor cefotaxime interferes with voltammetric detection.

On to `CO/N=C(\C(=O)N[C@@H]1C(=O)N2C(C(=O)O)=C(COC(C)=O)CS[C@H]12)c1csc(N)n1` [cefotaxime], for which the optical density in data set [1] (ESBL+ E. coli strain cultured in LB with 4 μg·mL^−1 cefotaxime) was found to be 0.934; in data set [1] (ESBL− E. coli strain cultured in LB with 4 μg·mL^−1 cefotaxime), 0.002. Also, the “E. coli count on selective medium” value in the data set with ESBL+ E. coli strain (culture with cefotaxime without inhibitor) is recorded as 1.8×10^8 CFU·mL^−1.
As for `O=C(O)[C@H]1/C(=C/CO)O[C@@H]2CC(=O)N21` [clavulanate potassium], in the data set with ESBL+ E. coli strain (ESBL+ strain cultured with 4 μg·mL^−1 cefotaxime and 10 μg·mL^−1 clavulanate potassium), the “anodic peak resulting from hydrolysis of nitrocefin” value is given as “no signal was recorded”. In the data set on ESBL+ E. coli strain (culture with cefotaxime supplemented with an inhibitor (clavulanate potassium)), the “E. coli count on selective medium” value came to 80 CFU·mL^−1.
Take `O=C(Cc1cccs1)NC(C(=O)O)C1NC(C(=O)O)=C(C=Cc2ccc([N+](=O)[O-])cc2[N+](=O)[O-])CS1` (stereo not shown) [hydrolyzed nitrocefin]: the “peak of irreversible anodic oxidation (a1)” value in data set [2] is “about +1.0 V vs. Ag/AgCl”. Moreover, the “peak of irreversible anodic oxidation (a2)” value in data set [2] (PBS pH 7.0, nitrocefin hydrolyzed by ESBL) was “about +0.3 V”.
On to `O=C(Cc1cccs1)N[C@@H]1C(=O)N2C(C(=O)O)=C(/C=C/c3ccc([N+](=O)[O-])cc3[N+](=O)[O-])CS[C@H]12` [nitrocefin], for which the “peak of irreversible anodic oxidation (a1)” value in data set [2] was “about +1.0 V vs. Ag/AgCl”. Besides, the “anodic peak associated with hydrolysis of the β-lactam ring of nitrocefin” value in data set [3] (ESBL+ E. coli strain) was “about +0.4 V vs. Ag/AgCl”; in data set [3] (ESBL− E. coli strain), “no peak is recorded”.
